Assay: Resistivity of blends according to standard ASTM D1169
Format: physicochemical
Method: The resistivity ability of blends was evaluated according to the standard ASTM […].

Resistivity: 12.00 10^10 Ωcm
SMILES: CCCCCCCC/C=C\CCCCCCCC(=O)OCC(COC(=O)CCCCCCC/C=C\CCCCCCCC)(COC(=O)CCCCCCC/C=C\CCCCCCCC)COC(=O)CCCCCCC/C=C\CCCCCCCC [Pentaerythritol tetraoleate]

— patent EP4588995A1, “IMPROVEMENT OF SOLUBILITY OF CHOLINE CARBOXYLATES IN BASE OILS” (OLEON NV, priority 2024, dated 2025)
